From US20260146029A1, “METHODS FOR THE TREATMENT OR PROPHYLAXIS OF ENDOMETRIOSIS” (Gesynta Pharma AB, priority 2022, published 2026)
Where “and” joins values, the source holds several entries; their conditions need not be identical. Equal entries are not always repeated.

Experiments:
[1] = test system: Marmoset monkeys (Callithrix jacchus), established endometriosis; test: Colour Doppler ultrasonic scanning of blood flow (bladder area, reproductive tract area); format: in vivo; parameters: key to Individual data on blood flow bladder / Individual data on blood flow repro tract: 0=blood flow not visible; 1=weak blood flow; 2=medium blood flow; 3=massive blood flow; conditions: for Individual data on blood flow bladder / Individual data on blood flow repro tract: individual animals 1-8 (one line each), 6.67 mg/kg; for Individual data on blood flow bladder / Individual data on blood flow repro tract / Blood flow bladder, median score / Blood flow repro tract, median score: oral 6.67 mg/kg twice/day; for Blood flow bladder, median score / Blood flow repro tract, median score: median of 8 animals, scale 0-3, baseline median 2
Procedure: (§1) The substance as depicted below (prepared according to the procedure in WO 2012/022793 A1) was orally administered (as the hydrogen sulphate salt thereof) for 6 weeks to common marmoset monkeys at a dose of 6.67 mg/kg twice/day (calculated based on the free base, with the actual weight of compound administered calculated as required for the hydrogen sulphate salt).
(§2) The age of the marmosets ranged between 3 and 16 years. All animals were female and had established endometriosis over years. Induction of endometriosis was performed as described in Einspanier et al., Mol Human Reprod., 12(5), 291-9 (2006).
Colour Doppler ultrasonic scanning was done before and 3 times during the treatment period to follow blood flow. Colour doppler scanning was carried out as described by Einspanier (ibid).
Colour Doppler ultrasonic scanning was performed to measure blood flow in the reproductive tract (uterus and ovaries) area as well as in the bladder area.
Individual blood flow measurements are provided in Table 1, 0=blood flow not visible, 1=weak blood flow, 2=medium blood flow and 3=massive blood flow.

[2] = test system: Marmoset monkeys (Callithrix jacchus), established endometriosis; test: Laparotomy assessment of endometriotic lesions (number and size of foci); format: in vivo
Procedure: as §1, §2
Laparotomy was carried out twice, seven weeks before treatment start of treatment and immediately after end of treatment. There was a duration of at least 3 months between each laparotomy.
After pre-medication with Göttinger Mischung M II (Ketamin, Xylazin and Atropin mixture), an inhalation anaesthesia with Isofluran was carried out which last in average 60 minutes. The abdomen was opened beside line alba for 1 cm range to visualise the reproductive tract and bladder. The endometriotic lesions were characterized and documented in pictures. During the second laparoptomy samples from the lesions were collected. Postoperative care of the animals was carried out as required by local law. The collected tissue samples were fixed in paraformaldehyde and embedded in paraffin or stored at −80° C. Before abdominal suture, all organs were replaced in their place. All females were separated from their males for some hours due to medical reasons and obtained antibiotics for some days.
Laparotomy analysis was performed to assess endometriotic lesions.

[3] = test system: Marmoset monkeys (Callithrix jacchus), established endometriosis; test: Feeding tree behaviour test; format: in vivo; conditions: during treatment, all animals
Text: (§3) Different behavioural test systems were used to study pain and discomfort, social comfort, memory, learning and activity were set up. All primates used in the study were familiar with the test-systems (for a period of more than 6 months) to confirm that the obtained results are related to the medication and not a learning effect over time.
(§4) Two test systems were used in the study as described in Arnold et al., J Med Primatol., 40, 317-326 (2011). • 1. Feeding tree • 2. Wisconsin General Testing apparatus (WGTA) Before and during the study documentation of social interaction, such as grooming, were performed.
The feeding tree was to test movement activity associated with pain, discomfort and/or distress. The feeding tree offers food at different positions to reach, which requires different levels of movement. If an animal has discomfort, distress or abdominal pain it will not search for food at upper areas or at all. Moreover, systematic search is reduced if memory is impaired. In the setting, each primate had to empty every reward-containing hideouts within 5 minutes to be fully successful. The response of the 8 animals was graded before, during and after treatment on a scale of 0-4 indicting the number of hideouts emptied within 5 minutes.

[4] = test system: Marmoset monkeys (Callithrix jacchus), established endometriosis; test: Wisconsin General Testing Apparatus (WGTA) memory and learning test; format: in vivo; conditions: during the treatment, all females
Text: as §3, §4
Memory and learning of the primates were tested. All animals are train-rewarded for the WGTA. The animal, which is sitting in the transport box, is either trained for special figures or places, which hide the reward. The observer can watch the behaviour of the animal, but the animal cannot see the observer.
The 8 animals were tested in the WGTA for memory by remembering either the figure or location of the hidden reward. Wellbeing of a primate is associated with willingness to search for food, which is also included by this test system. The animals have to find the reward underneath the three different figures three times within 5 minutes. Each animal is either trained for the location of the figure or figure itself.

[5] = test system: Marmoset monkeys (Callithrix jacchus), established endometriosis; test: Social interaction (grooming) observation; format: in vivo; conditions: during treatment compared to before treatment, all animals
Procedure: as §4
The documentation of grooming was carried out by daytime observation. These behaviour observations give information about wellbeing, while grooming is a marker for positive social activity. The social grooming was documented 1 h after breakfast and 1 h after lunch by observing the couples each time for 10 minutes. For each animal, the number of grooming interactions in the observed period was recorded.

[6] = test system: Marmoset monkeys (Callithrix jacchus), established endometriosis; test: General health status: clinical signs and blood chemistry; format: in vivo; conditions: oral 6.67 mg/kg twice/day for 6 weeks
Procedure: (§5) All animals were weighed weekly before and during the treatment. Health body checks including clinical signs as well as blood chemistry analysis were carried out in a regular manner by the responsible vet.

[7] = test system: Marmoset monkeys (Callithrix jacchus), established endometriosis; test: Reproductive cycle monitoring by serum progesterone; format: in vivo; conditions: after treatment
Procedure: For analysis of serum progesterone concentration to monitor the reproductive cycle, blood was collected weekly before and during treatment. Serum was separated from blood samples by centrifugation (2600 rpm 10 min, Eppendorf Centrifuge 5810 R) within two hours of sampling and stored at minus 80° C.

[8] = Body weight (weighed weekly); format: in vivo, Marmoset monkeys (Callithrix jacchus); conditions: during the treatment period; oral 6.67 mg/kg twice/day for 6 weeks
Procedure: as §5

[9] = Week 7 (EoT), individual animals 1-8 (one line each), oral 6.67 mg/kg twice/day for 6 weeks
[10] = Week 7 (EoT), individual animals 1-8 (one line each), oral 6.67 mg/kg twice/day for 6 weeks, 6.67 mg/kg

Cn1c(Nc2c(Cl)ccc(CNC(=O)C(C)(C)C)c2Cl)nc2cc(C(=O)N[C@H]3CC[C@H](C(F)(F)F)CC3)c(OCC(F)F)cc21 [compound of formula I, 2-{2,6-dichloro-3-[(2,2-dimethyl-propionylamino)-methyl]-phenylamino}-6-(2,2-difluoroethoxy)-1-methyl-1H-benzoimidazole-5-carboxylic acid (trans-4-trifluoromethylcyclohexyl)-amide]
Individual data on blood flow bladder ([1]; Week 1): 3 (3×) and 2 (3×) and 1 (2×)
Individual data on blood flow repro tract ([1]; Week 1): 3 and 2 (5×) and 1 (2×)
Blood flow bladder, median score ([1]; Week 1): 2
Blood flow repro tract, median score ([1]; Week 1): 2
Individual data on blood flow bladder ([1]; Week 4): 3 and 2 (3×) and 1 (4×)
Individual data on blood flow repro tract ([1]; Week 4): 2 (3×) and 1 (4×) and 0
Blood flow bladder, median score ([1]; Week 4): 1.5
Blood flow repro tract, median score ([1]; Week 4): 1
Individual data on blood flow bladder ([1]; Week 6): 2 and 1 (7×)
Individual data on blood flow repro tract ([1]; Week 6): 2 (3×) and 1 (3×) and 0 (2×)
Blood flow in reproductive tract (uterus and ovaries) area and bladder area, result in words ([1]; all animals, both areas, oral 6.67 mg/kg twice/day for 6 weeks): Decreased blood flow
Number of endometriotic lesions repro tract, lesion size 2-4 mm [2, 9]: 0
Number of endometriotic lesions repro tract, lesion size >4 mm [2, 9]: 0
Number of endometriotic lesions on the bladder, Total [2, 10]: 4 (2×) and 14 and 24 and 7 and 12 and 5 and 10
Number of endometriotic lesions on the bladder, lesion size 2-4 mm [2, 10]: 0 (6×) and 3 and 5
Number of endometriotic lesions on the bladder, lesion size <2 mm [2, 10]: 0 (4×) and 5 and 12 and 4 and 7
Number of endometriotic lesions on the bladder, lesion size >4 mm [2, 10]: 0 (6×) and 3 and 2
Number of endometriotic lesions on the bladder, lesion size s.p. (visible but not measurable) [2, 10]: 4 and 2 and 5 (2×) and 7 and 0 and 12 and 3
Number of endometriotic lesions repro tract, Total [2, 10]: 0 (2×) and 3 (2×) and 8 and 2 (2×) and 4
Number of endometriotic lesions repro tract, lesion size <2 mm [2, 10]: 0 (5×) and 2 (2×) and 4
Number of endometriotic lesions repro tract, lesion size s.p. (visible but not measurable) [2, 10]: 0 (2×) and 1 and 4 and 3 and 2 (3×)
Endometric foci at laparotomy, result in words ([2]; all animals, all sizes of foci affected, after 6 weeks of treatment): Pronounced reduction
Success rate in the feeding tree (hideouts emptied within 5 minutes, scale 0-4) [3]: improved
WGTA success rate of correct figure or location within time [4]: increased success rate
Grooming interactions [5]: increased
Blood laboratory parameters ([6]; before and after treatment): in the physiological range
Clinical signs, general health behaviour of the study animals ([6]; during the study period, 8 female marmosets): no changes
Animals showing irregular cycles ([7]; of 8 animals, before therapy 5 irregular cycles and 1 no activity): 2 animals
Animals showing ovarian cycle activity ([7]; before therapy 2 of 8 animals showed ovarian cycle activity): 6 out of 8
Change in body weight [8]: no significant change
